In PMC7180638, “Synthesis of Pyrrolidine Monocyclic Analogues of Pochonicine and Its Stereoisomers: Pursuit of Simplified Structures and Potent β-N-Acetylhexosaminidase Inhibition” (Molecules, 2020):
Structures can show the parent of a compound that is named as a salt. Where two headings read alike, the source gives them in different places.

Experiments:
Assay type in all cases: biochemical
[1] = molecular target: T1, α-Glucosidase (Rice) (Oryza sativa subsp. japonica, UniProt Q653V7); assay: α-Glucosidase (rice) inhibition
T1 construct: purchased Sigma-Aldrich Chemical Co
T1 sequence (Q653V7 34-885): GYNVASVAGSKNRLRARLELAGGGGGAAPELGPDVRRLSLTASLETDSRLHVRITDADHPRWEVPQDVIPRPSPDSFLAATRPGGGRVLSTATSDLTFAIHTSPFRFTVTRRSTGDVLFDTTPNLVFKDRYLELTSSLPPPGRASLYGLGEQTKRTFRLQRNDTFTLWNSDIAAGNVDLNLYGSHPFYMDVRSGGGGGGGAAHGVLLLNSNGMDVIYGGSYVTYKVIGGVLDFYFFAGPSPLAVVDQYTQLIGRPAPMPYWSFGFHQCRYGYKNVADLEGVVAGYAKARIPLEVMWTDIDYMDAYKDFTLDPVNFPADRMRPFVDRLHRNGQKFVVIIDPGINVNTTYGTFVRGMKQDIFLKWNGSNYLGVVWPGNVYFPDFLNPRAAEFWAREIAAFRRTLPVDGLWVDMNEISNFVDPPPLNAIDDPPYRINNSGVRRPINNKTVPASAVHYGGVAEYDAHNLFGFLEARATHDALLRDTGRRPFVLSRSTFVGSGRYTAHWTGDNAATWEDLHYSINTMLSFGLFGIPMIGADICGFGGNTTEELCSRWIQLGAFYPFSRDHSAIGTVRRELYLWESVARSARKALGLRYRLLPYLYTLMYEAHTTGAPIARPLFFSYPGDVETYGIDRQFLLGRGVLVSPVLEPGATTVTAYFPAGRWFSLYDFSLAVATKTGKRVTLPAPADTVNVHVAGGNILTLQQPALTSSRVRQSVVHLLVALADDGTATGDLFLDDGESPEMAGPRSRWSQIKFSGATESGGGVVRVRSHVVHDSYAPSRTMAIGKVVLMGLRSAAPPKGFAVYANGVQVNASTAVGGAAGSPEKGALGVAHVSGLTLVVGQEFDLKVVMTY
Method: (§1) With rat intestinal maltase as an exception, other enzymes were purchased from Sigma-Aldrich Chemical Co. (St. Louis, MO, USA). Brush border membranes prepared from rat small intestine according to the method of Kessler et al. were assayed at pH 6.8 for rat intestinal maltase using maltose. The released D-glucose was determined colorimetrically using the Glucose CII-test Wako (Wako Pure Chemical Ind.; Osaka, Japan). Other glycosidase activities were determined using an appropriate p-nitrophenyl glycoside as substrate in a buffer solution at the optimal pH value of each enzyme. The reaction was stopped by adding 400 mM Na2CO3. The released p-nitrophenol was measured spectrometrically at 400 nm.

[2] = molecular target: T2, Amyloglucosidase (A. niger) (Aspergillus niger, UniProt P69328); assay: Amyloglucosidase (A. niger) inhibition
T2 construct: purchased Sigma-Aldrich Chemical Co
T2 sequence (P69328 25-640): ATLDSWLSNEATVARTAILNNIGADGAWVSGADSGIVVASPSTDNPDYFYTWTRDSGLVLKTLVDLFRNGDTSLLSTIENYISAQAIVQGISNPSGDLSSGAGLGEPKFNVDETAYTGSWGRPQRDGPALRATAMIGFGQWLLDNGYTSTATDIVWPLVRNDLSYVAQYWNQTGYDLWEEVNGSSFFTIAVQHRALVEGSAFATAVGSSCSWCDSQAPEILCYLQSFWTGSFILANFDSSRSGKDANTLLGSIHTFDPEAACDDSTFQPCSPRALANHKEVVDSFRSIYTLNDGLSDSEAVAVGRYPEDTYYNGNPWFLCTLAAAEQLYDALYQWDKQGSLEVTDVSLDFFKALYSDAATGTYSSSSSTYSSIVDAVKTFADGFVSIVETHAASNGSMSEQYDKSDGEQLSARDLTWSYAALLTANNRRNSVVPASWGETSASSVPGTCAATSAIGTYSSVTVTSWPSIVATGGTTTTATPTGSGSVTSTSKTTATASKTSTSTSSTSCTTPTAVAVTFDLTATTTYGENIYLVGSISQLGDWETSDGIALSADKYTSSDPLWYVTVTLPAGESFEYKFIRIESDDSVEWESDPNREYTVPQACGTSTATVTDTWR
Method: as §1

[3] = molecular target: T3, α-L-Fucosidase (Bovine kidney) (Bos taurus, UniProt Q2KIM0); assay: α-L-Fucosidase (bovine kidney) inhibition
T3 construct: purchased Sigma-Aldrich Chemical Co; host or cells: bovine kidney
T3 sequence (Q2KIM0 23-468): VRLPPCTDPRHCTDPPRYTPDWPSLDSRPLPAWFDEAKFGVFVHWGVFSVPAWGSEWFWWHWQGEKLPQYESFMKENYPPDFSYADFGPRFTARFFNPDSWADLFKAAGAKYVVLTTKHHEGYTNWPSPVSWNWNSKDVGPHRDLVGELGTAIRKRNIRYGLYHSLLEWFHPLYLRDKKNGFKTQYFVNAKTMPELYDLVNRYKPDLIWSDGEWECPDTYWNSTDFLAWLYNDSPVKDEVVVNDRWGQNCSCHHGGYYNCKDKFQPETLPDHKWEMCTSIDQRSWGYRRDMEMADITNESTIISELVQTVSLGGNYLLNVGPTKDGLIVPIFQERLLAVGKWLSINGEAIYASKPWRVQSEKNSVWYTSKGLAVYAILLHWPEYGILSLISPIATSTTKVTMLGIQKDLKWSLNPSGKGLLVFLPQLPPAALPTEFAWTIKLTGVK
Method: as §1

[4] = molecular target: T4, β-Glucuronidase (E. coli) (Escherichia coli, UniProt P05804); assay: β-Glucuronidase (E. coli) inhibition
T4 construct: purchased Sigma-Aldrich Chemical Co
T4 sequence (P05804 whole entry): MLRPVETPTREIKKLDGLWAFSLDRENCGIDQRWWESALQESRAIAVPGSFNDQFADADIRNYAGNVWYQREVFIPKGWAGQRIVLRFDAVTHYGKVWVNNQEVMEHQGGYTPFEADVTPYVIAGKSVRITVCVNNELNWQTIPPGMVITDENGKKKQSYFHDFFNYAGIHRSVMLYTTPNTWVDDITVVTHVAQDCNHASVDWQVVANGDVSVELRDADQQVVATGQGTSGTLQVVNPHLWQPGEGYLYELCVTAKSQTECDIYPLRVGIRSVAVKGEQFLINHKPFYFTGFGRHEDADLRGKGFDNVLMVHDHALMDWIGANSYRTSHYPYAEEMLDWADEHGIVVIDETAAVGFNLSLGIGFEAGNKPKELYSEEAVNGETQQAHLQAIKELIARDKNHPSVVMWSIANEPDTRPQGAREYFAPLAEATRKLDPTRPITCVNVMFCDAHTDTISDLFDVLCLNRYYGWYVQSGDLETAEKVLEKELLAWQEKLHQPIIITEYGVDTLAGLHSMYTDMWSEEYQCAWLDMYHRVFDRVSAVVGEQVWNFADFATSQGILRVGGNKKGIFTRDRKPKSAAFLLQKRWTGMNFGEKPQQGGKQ
Method: as §1

[5] = molecular target: Rat intestinal maltase; assay: Rat intestinal maltase inhibition; details: α-Glucosidase
Method: as §1

[6] = molecular target: T5, β-Galactosidase (Bovine liver) (Bos taurus, UniProt F1MNT6); assay: β-Galactosidase (bovine liver) inhibition
T5 sequence (F1MNT6 1-469): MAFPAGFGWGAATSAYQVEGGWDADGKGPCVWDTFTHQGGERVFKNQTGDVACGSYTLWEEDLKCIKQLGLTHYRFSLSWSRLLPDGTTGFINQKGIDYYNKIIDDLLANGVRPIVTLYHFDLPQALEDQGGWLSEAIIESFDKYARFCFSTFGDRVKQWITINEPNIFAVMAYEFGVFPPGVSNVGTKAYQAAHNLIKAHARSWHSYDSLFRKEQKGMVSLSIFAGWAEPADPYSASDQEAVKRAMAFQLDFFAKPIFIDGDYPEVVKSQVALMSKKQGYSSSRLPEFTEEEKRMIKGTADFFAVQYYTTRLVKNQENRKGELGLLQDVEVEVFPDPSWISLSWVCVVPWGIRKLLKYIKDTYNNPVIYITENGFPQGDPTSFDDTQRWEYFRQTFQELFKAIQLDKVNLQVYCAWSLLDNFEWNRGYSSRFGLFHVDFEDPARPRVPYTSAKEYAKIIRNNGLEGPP
Method: as §1

[7] = molecular target: T6, α-Galactosidase (Coffee beans) (Coffea arabica, UniProt Q42656); assay: α-Galactosidase (coffee beans) inhibition
T6 construct: purchased Sigma-Aldrich Chemical Co
T6 sequence (Q42656 16-378): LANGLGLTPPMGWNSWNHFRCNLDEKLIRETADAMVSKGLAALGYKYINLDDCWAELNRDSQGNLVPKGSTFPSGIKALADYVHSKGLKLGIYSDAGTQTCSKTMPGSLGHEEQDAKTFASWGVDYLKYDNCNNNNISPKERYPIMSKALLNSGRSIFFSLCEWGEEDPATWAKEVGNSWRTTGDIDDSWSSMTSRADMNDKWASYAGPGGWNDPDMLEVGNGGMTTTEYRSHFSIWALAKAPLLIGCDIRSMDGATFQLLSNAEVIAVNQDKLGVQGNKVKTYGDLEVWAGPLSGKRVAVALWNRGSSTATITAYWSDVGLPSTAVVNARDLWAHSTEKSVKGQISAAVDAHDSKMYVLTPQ
Method: as §1

[8] = molecular target: β-N-Acetylhexosaminidase (HL60); assay: β-N-Acetylhexosaminidase (HL60) inhibition; details: for IC50: β-N-Acetylhexosaminidase (β-GlcNAcase); for Inhibition % at 1000 μM: β-N-Acetylhexosaminidase
Method: as §1

[9] = molecular target: α-Glucosidase (Yeast) (Saccharomyces cerevisiae, UniProt P53341); assay: α-Glucosidase (yeast) inhibition
Chain of α-Glucosidase (Yeast) (P53341 whole entry): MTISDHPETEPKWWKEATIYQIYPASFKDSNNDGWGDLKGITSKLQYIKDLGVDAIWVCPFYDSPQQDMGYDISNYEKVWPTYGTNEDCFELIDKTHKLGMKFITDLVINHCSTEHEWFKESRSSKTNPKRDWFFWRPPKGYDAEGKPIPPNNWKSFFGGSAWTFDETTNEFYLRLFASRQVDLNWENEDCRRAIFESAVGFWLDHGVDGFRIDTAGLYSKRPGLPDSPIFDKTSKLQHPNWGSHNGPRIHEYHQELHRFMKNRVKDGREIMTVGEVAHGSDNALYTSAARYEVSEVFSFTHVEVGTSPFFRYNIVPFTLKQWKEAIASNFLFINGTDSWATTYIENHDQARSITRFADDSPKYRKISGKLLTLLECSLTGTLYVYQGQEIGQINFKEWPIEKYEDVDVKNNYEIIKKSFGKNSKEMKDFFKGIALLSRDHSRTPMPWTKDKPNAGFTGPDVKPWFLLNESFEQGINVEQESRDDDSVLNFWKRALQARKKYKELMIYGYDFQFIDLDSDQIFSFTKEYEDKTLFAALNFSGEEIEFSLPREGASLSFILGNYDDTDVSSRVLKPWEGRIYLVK
Method: as §1

[10] = molecular target: β-N-Acetylhexosaminidase (Bovine liver); assay: β-N-Acetylhexosaminidase (bovine liver) inhibition; details: for IC50: β-N-Acetylhexosaminidase (β-GlcNAcase); for Inhibition % at 1000 μM: β-N-Acetylhexosaminidase
Method: as §1

[11] = molecular target: α-L-Rhamnosidase (P. decumbens); assay: α-L-Rhamnosidase (P. decumbens) inhibition
Method: as §1

[12] = molecular target: β-N-Acetylhexosaminidase (Jack bean); assay: β-N-Acetylhexosaminidase (Jack bean) inhibition; details: for IC50: β-N-Acetylhexosaminidase (β-GlcNAcase)
Method: as §1

[13] = molecular target: T7, β-Glucuronidase (Bovine liver) (Bos taurus, UniProt A3KMY8); assay: β-Glucuronidase (bovine liver) inhibition
T7 construct: purchased Sigma-Aldrich Chemical Co; host or cells: bovine liver
T7 sequence (A3KMY8 1-652): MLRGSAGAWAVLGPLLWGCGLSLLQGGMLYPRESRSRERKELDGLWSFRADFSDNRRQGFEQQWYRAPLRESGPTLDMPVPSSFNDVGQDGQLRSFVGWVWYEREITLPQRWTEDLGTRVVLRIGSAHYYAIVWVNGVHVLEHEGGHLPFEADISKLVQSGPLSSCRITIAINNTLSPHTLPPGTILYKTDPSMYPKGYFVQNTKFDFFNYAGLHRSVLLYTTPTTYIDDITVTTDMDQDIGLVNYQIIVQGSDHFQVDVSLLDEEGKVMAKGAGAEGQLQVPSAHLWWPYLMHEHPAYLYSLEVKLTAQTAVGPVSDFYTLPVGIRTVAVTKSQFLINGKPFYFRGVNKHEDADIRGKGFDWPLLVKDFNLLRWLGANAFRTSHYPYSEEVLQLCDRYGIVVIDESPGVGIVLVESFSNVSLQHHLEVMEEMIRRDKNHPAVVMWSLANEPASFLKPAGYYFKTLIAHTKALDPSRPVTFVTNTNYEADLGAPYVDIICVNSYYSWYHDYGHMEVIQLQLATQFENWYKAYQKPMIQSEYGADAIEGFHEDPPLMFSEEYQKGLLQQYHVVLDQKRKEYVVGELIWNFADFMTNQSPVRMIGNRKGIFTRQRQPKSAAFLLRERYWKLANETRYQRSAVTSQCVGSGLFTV
Method: as §1

[14] = 1000 μM, read-out: Inhibition % at 1000 μM
[15] = read-out: Inhibition % at 1000 μM
[16] = α-Glucosidase, Yeast, read-out: IC50

Row | Compound | inhibition at 1000 µM [1, 14] | inhibition at 1000 µM ([1]; read-out: IC50) | inhibition at 1000 µM [2, 14] | inhibition at 1000 µM ([2]; read-out: IC50) | inhibition at 1000 µM [3, 14] | inhibition at 1000 µM ([3]; read-out: IC50) | inhibition at 1000 µM [4, 14] | inhibition at 1000 µM ([4]; read-out: IC50) | IC50 [5] | Inhibition % at 1000 μM [5] | inhibition at 1000 µM [6, 14] | inhibition at 1000 µM ([6]; read-out: IC50) | inhibition at 1000 µM [7, 14] | inhibition at 1000 µM ([7]; read-out: IC50) | IC50 [8] | Inhibition % at 1000 μM [8] | inhibition at 1000 µM [9, 15] | IC50 [11] | Inhibition % at 1000 μM [11] | inhibition at 1000 µM [13, 14] | further results
1 | CC(=O)NC[C@@H]1N[C@H](CO)[C@H](O)[C@H]1O [F-10a, 1-N-acetylamino-2,5-imino-1,2,5-trideoxy-L-glucitol hydrochloride] | 12.5% | < 50% | 2.8% | < 50% | 8.4% | < 50% | 0% | < 50% | NI (No Inhibition (less than 50% at 1000 μM)) | 14.6% | 4.2% | < 50% | 0.36% | < 50% | NI (No Inhibition (less than 50% at 1000 μM)) | 0% | 6.91% | NI (No Inhibition (less than 50% at 1000 μM)) | 5.3% | 0% | inhibition at 1000 µM ([9]; read-out: IC50): < 50%; IC50 [10]: NI (No Inhibition (less than 50% at 1000 μM)); Inhibition % at 1000 μM [10]: 23.2%; IC50 [12]: NI (No Inhibition (less than 50% at 1000 μM)); Inhibition % at 1000 μM ([12]; β-N-Acetylhexosaminidase, 1000 μM): 42%; inhibition at 1000 µM ([13]; read-out: IC50): < 50%
2 | CC(=O)NC[C@H]1N[C@H](CO)[C@H](O)[C@H]1O [F-10b, 1-N-acetylamino-2,5-imino-1,2,5-trideoxy-D-iditol hydrochloride] | 0% | < 50% | 5.7% | < 50% | 3.9% | < 50% | 0% | < 50% | NI (No Inhibition (less than 50% at 1000 μM)) | 12.7% | 4.2% | < 50% | 0% | < 50% | NI (No Inhibition (less than 50% at 1000 μM)) | 16.6% | 0% | NI (No Inhibition (less than 50% at 1000 μM)) | 3.0% | 0% | inhibition at 1000 µM [9, 16]: < 50%; IC50 ([10]; read-out: IC50): 652 µM; IC50 ([12]; read-out: IC50): 98 µM; inhibition at 1000 µM ([13]; read-out: IC50): < 50%
3 | CC(=O)NC[C@H]1N[C@@H](CO)[C@H](O)[C@@H]1O [G-10, 1-N-acetylamino-2,5-imino-1,2,5-trideoxy-D-allitol hydrochloride] | 0% | < 50% | 7.6% | < 50% | 11.5% | < 50% | 0% | < 50% | NI (No Inhibition (less than 50% at 1000 μM)) | 16.0% | 2.9% | < 50% | 0% | < 50% | NI (No Inhibition (less than 50% at 1000 μM)) | 18.8% | 0% | NI (No Inhibition (less than 50% at 1000 μM)) | 9.5% | 0% | inhibition at 1000 µM [9, 16]: < 50%; IC50 ([10]; read-out: IC50): 299 µM; IC50 ([12]; read-out: IC50): 26 µM; inhibition at 1000 µM ([13]; read-out: IC50): < 50%
4 | CC(=O)NC[C@@H]1N[C@H](CO)[C@@H](O)[C@H]1O [H-10, 1-N-acetylamino-2,5-imino-1,2,5-trideoxy-L-allitol hydrochloride] | 5.6% | < 50% | 8.3% | < 50% | 22.3% | < 50% | 0% | < 50% | NI (No Inhibition (less than 50% at 1000 μM)) | 13.6% | 3.6% | < 50% | 0% | < 50% | NI (No Inhibition (less than 50% at 1000 μM)) | 0.3% | 0% | NI (No Inhibition (less than 50% at 1000 μM)) | 7.7% | 0% | inhibition at 1000 µM [9, 16]: < 50%; IC50 [10]: NI (No Inhibition (less than 50% at 1000 μM)); Inhibition % at 1000 μM [10]: 33.7%; IC50 ([12]; read-out: IC50): 241 µM; inhibition at 1000 µM ([13]; read-out: IC50): < 50%
